Measurements as given in publication PMC8556085, “Antimicrobial and Antioxidant Secondary Metabolites from Trifolium baccarinii Chiov. (Fabaceae) and Their Mechanisms of Antibacterial Action” (BioMed Research International, 2021).
≈ marks a conversion by molar mass, not a printed value. Where two headings read alike, the source gives them in different places. Marks after values point to notes of the source that are not given here.

Legend:
[1] = DPPH free radical scavenging assay; conditions: for DPPH free radical scavenging activity (EC50): mean ± SD
Protocol: The free radical scavenging activity of extracts and compounds was evaluated according to the described method. The EC50 (μg/mL), which is the amount of sample necessary to inhibit by 50% the absorbance of free radical DPPH, was calculated. Vitamin C was used as a standard control. All the analyses were carried out in triplicate and repeated three times.

[2] = Gallic acid equivalent antioxidant capacity (GEAC) assay; conditions: for Gallic acid equivalent antioxidant capacity (GEAC): ABTS radical, 420 nm, 240 s, mean ± SD
Protocol: The GEAC test was performed as described previously with some slight modifications. The laccase was purified from Sclerotinia sclerotiorum according to the described protocol. 20 μL of laccase (1 mM stock solution), 20 μL of test sample, 10 μL of ABTS (2,2′-azino-bis(3-ethylbenzothiazoline-6-sulfonic acid) (74 mM stock solution), and 950 μL of acetate buffer (pH = 5.0, 100 mM) were added in a quartz cuvette. The concentrations of the samples in the assay mixture were 800, 400, 200, 100, and 10 μg/mL for the extracts and 200, 100, 50, 25, and 12.5 μg/mL for the isolated compounds. The content of the generated ABTS^●+ radical was measured at 420 nm after 240 s reaction time and was converted to gallic acid equivalents by the use of a calibration curve (Pearson's correlation coefficient: r = 0.998) constructed with 0, 4, 10, 14, 28, 56, and 84 μM gallic acid standards rather than Trolox. Experiments were done in triplicate and repeated three times with similar results.

[3] = tested on: tested bacteria and yeasts; assay: Broth microdilution MIC/MMC, summary over all strains; assay type: cell-based; conditions: for antimicrobial activity class of pure compounds by cutoff points: against specific microorganism, cutoff points of ref 33; for MIC: read-out: MIC (range over the tested microorganisms)
Protocol: (§1) The antimicrobial activity was performed against five bacterial and two fungal species. The selected microorganisms were the Gram-positive (Staphylococcus aureus ATCC25923, methicillin-resistant Staphylococcus aureus 03 (MRSA03), and methicillin-resistant Staphylococcus aureus 04 (MRSA04)) and Gram-negative (Pseudomonas aeruginosa ATCC27853 and Escherichia coli S2(1)) bacteria and yeast strains of Candida albicans ATCC10231 and Cryptococcus neoformans H99. These microorganisms were taken from our laboratory collection. The fungal and bacterial strains were conserved on Sabouraud Dextrose Agar (SDA, Conda, Madrid, Spain) and nutrient agar (NA, Conda) slants, respectively.
(§2) The antimicrobial activity was investigated by determining the minimum inhibitory concentrations (MICs), minimum bactericidal concentrations (MBC), and minimum fungicidal concentrations (MFCs). MICs of extracts/compounds were monitored using the broth microdilution method. Dimethyl sulfoxide (DMSO, Fisher Chemicals) was used to dissolve the test sample to produce a stock solution that was twofold serially diluted in Mueller-Hinton broth (MHB) for bacteria and Sabouraud Dextrose Broth (SDB) for fungi to obtain a concentration range of 4096 to 0.25 μg/mL. One hundred microliters of each concentration was introduced into a well (96-well microplate) containing 90 μL of SDB or MHB and 10 μL of inoculum (at 1 × 10^6 CFU/mL for bacteria and 1 × 10^5 spores/mL for yeasts) which were added to obtain a final concentration range of 2048 to 0.125 μg/mL. Plates were covered and incubated on the shaker at 37°C, 30°C, and 30°C during 24 h, 48 h, and 72 h for bacteria, Candida albicans, and Cryptococcus neoformans, respectively. The MICs were visually assessed after the incubation period and were considered the lowest sample concentration that inhibits the growth or the visual growth of the organism.
(§3) The positive controls were oxacillin (Sigma-Aldrich, Steinheim, Germany) for bacteria and nystatin (Sigma-Aldrich, Steinheim, Germany) for yeasts, and the negative control was broth with 20 μL of DMSO. The assay was carried out in triplicate.

[4] = tested on: methicillin-resistant Staphylococcus aureus 03 (MRSA03); assay: Broth microdilution MIC/MMC; assay type: cell-based; conditions: for MMC/MIC / MBC: MRSA03; for MBC / MIC: Staphylococcus aureus; for MIC: MRSA03, 24 h, 37°C, read-out: MIC
Protocol: as §1, §2, §3

[5] = tested on: Cryptococcus neoformans H99; assay: Broth microdilution MIC/MMC; assay type: cell-based; conditions: for MIC: Cryptococcus neoformans H99, 72 h, 30°C
Protocol: as §1, §2, §3

[6] = tested on: Candida albicans ATCC10231; assay: Broth microdilution MIC/MMC; assay type: cell-based; conditions: for MIC: Candida albicans ATCC10231, 48 h, 30°C
Protocol: as §1, §2, §3

[7] = tested on: Pseudomonas aeruginosa ATCC27853; assay: Broth microdilution MIC/MMC; assay type: cell-based; conditions: for MBC / MMC/MIC: Pseudomonas aeruginosa ATCC27853; for MIC: Pseudomonas aeruginosa ATCC27853, 24 h, 37°C, read-out: MIC
Protocol: as §1, §2, §3

[8] = tested on: methicillin-resistant Staphylococcus aureus 04 (MRSA04); assay: Broth microdilution MIC/MMC; assay type: cell-based; conditions: for MMC/MIC / MBC: MRSA04; for MBC / MIC: Staphylococcus aureus; for MIC: MRSA04, 24 h, 37°C, read-out: MIC
Protocol: as §1, §2, §3

[9] = tested on: Staphylococcus aureus ATCC25923; assay: Broth microdilution MIC/MMC; assay type: cell-based; conditions: for MBC / MMC/MIC: Staphylococcus aureus ATCC25923; for MIC: Staphylococcus aureus ATCC25923, 24 h, 37°C, read-out: MIC
Protocol: as §1, §2, §3

[10] = tested on: Escherichia coli S2(1); assay: Broth microdilution MIC/MMC; assay type: cell-based; conditions: for MIC: 24 h, 37°C, read-out: MIC
Protocol: as §1, §2, §3

| SMILES | DPPH free radical scavenging activity (EC50) [1] | Gallic acid equivalent antioxidant capacity (GEAC) [2] | antimicrobial activity class of pure compounds by cutoff points [3] | MIC [3] [µg/mL] | MBC [4] [µg/mL] | MIC [4] [µg/mL] | MFC ([5]; Cryptococcus neoformans H99) [µg/mL] | MMC/MIC ([5]; Cryptococcus neoformans H99) | MIC ([5]; read-out: MIC) [µg/mL] | MFC ([6]; Candida albicans ATCC10231) [µg/mL] | MIC ([6]; read-out: MIC) [µg/mL] | MBC [7] [µg/mL] | MMC/MIC [7] | MIC [7] [µg/mL] | MBC [8] [µg/mL] | MIC [8] [µg/mL] | MBC [9] [µg/mL] | MIC [9] [µg/mL] | MBC [10] [µg/mL] | MIC [10] [µg/mL] | other results |
| --- | --- | --- | --- | --- | --- | --- | --- | --- | --- | --- | --- | --- | --- | --- | --- | --- | --- | --- | --- | --- | --- |
| O=C1O[C@H]([C@@H](O)CO)C(O)=C1O [Vitamin C, reference compound] | 1.81 ± 0.19^h μg/mL | – | – | – | – | – | – | – | – | – | – | – | – | – | – | – | – | – | – | – | – |
| COc1ccc(-c2coc3cc(O)cc(O)c3c2=O)cc1 [compound 1, biochanin A] | 4.87 ± 0.43^d μg/mL | 101.77 ± 1.24^d μg/mL | moderate | 32 to 64 (≈ 113 to 225 µM) | 128 (≈ 450 µM) | 64 (≈ 225 µM) | 32 (≈ 113 µM) | 1 | 32 (≈ 113 µM) | 64 (≈ 225 µM) | 32 (≈ 113 µM) | 64 (≈ 225 µM) | 2 | 32 (≈ 113 µM) | 128 (≈ 450 µM) | 64 (≈ 225 µM) | 32 (≈ 113 µM) | 32 (≈ 113 µM) | 64 (≈ 225 µM) | 32 (≈ 113 µM) | MMC/MIC [4]: 2; MMC/MIC ([6]; Candida albicans ATCC10231): 2; MMC/MIC [8]: 2; MMC/MIC [9]: 1; MMC/MIC [10]: 2 |
| O=c1cc(-c2ccc(O[C@@H]3O[C@H](CO)[C@@H](O)[C@H](O)[C@H]3O)c(O)c2)oc2cc(O)cc(O)c12 [compound 4, luteolin-4′-O-β-D-glucopyranoside] | 3.71 ± 0.99^d μg/mL | 118.71 ± 0.19^g μg/mL | moderate | 16 to 64 (≈ 35.7 to 143 µM) | 128 (≈ 285 µM) | 64 (≈ 143 µM) | 16 (≈ 35.7 µM) | 1 | 16 (≈ 35.7 µM) | 16 (≈ 35.7 µM) | 16 (≈ 35.7 µM) | 128 (≈ 285 µM) | 2 | 64 (≈ 143 µM) | 128 (≈ 285 µM) | 64 (≈ 143 µM) | 64 (≈ 143 µM) | 32 (≈ 71.4 µM) | 32 (≈ 71.4 µM) | 32 (≈ 71.4 µM) | MMC/MIC [4]: 2; MMC/MIC ([6]; Candida albicans ATCC10231): 1; MMC/MIC [8]: 2; MMC/MIC [9]: 2; MMC/MIC [10]: 1 |
| COc1ccc(-c2coc3cc(OC4OC(CO)C(O)C(O)C4O)cc(O)c3c2=O)cc1 (stereo not drawn) [compound 6, sissotrin] | 7.13 ± 0.97^e μg/mL | 72.96 ± 1.54^i μg/mL | moderate/low | 32 to 256 (≈ 71.7 to 573 µM) | > 256 | 256 (≈ 573 µM) | 256 (≈ 573 µM) | 8 | 32 (≈ 71.7 µM) | > 256 | 64 (≈ 143 µM) | 256 (≈ 573 µM) | 2 | 128 (≈ 287 µM) | > 256 | 256 (≈ 573 µM) | 128 (≈ 287 µM) | 64 (≈ 143 µM) | 128 (≈ 287 µM) | 64 (≈ 143 µM) | MMC/MIC [9]: 2; MMC/MIC [10]: 2 |
| CO[C@@H]1O[C@H](CO)[C@@H](O)[C@H](O)[C@H]1O [compound 7, 1-methyl-β-D-glucopyranoside] | – | – | not active | > 256 | > 256 | > 256 | > 256 | – | > 256 | > 256 | > 256 | > 256 | – | > 256 | > 256 | > 256 | > 256 | > 256 | > 256 | > 256 | activity in DPPH assay [1]: inactive; activity in TEAC assay [2]: inactive; antimicrobial activity ([3]; against the tested microorganisms): not active |
| COc1ccc(-c2coc3cc(O[C@@H]4O[C@H](CO)[C@@H](O)[C@H](O)[C@H]4O)ccc3c2=O)cc1 [compound 8, ononin] | 38.96 ± 1.54^g μg/mL | 57.43 ± 0.97^j μg/mL | moderate/low | 64 to 256 (≈ 149 to 595 µM) | > 256 | 256 (≈ 595 µM) | > 256 | – | 64 (≈ 149 µM) | > 256 | 128 (≈ 297 µM) | 256 (≈ 595 µM) | 1 | 256 (≈ 595 µM) | > 256 | 256 (≈ 595 µM) | 256 (≈ 595 µM) | 64 (≈ 149 µM) | 256 (≈ 595 µM) | 128 (≈ 297 µM) | MMC/MIC [9]: 4; MMC/MIC [10]: 2 |
| C[C@@H]1[C@H](O)[C@@H](C)/C=C/C=C/CC/C=C/C=C/C=C/C=C/C(O[C@H]2O[C@H](C)[C@@H](O)[C@H](N)[C@@H]2O)CC2O[C@](O)(CC(O)C(O)CCC(O)CC(O)CC(O)CC(=O)O[C@H]1C)CC(O)C2C(=O)O (stereo partly drawn) [nystatin, reference compound] | – | – | – | – | – | – | – | 1 | – | – | – | – | – | – | – | – | – | – | – | – | MMC/MIC (microbicidal activities) ([3]; against all the tested microorganisms): ≤ 4; MMC ([5]; Cryptococcus neoformans H99): 2 µg/mL; MIC [5]: 2 µg/mL (≈ 2.16 µM); MMC ([6]; Candida albicans ATCC10231): 1 µg/mL; MMC/MIC ([6]; Candida albicans ATCC10231): 1; MIC [6]: 1 µg/mL (≈ 1.08 µM) |
